Test results reported in US20030119775A1, “Respiration uncoupling protein” (DUKE UNIVERSITY, priority 1997, published 2003).

What was measured:
[1] = system: UCP2 mRNA; test: UCP2 mRNA levels in mouse tissues after treatment; assay type: in vivo, Swiss mice
Text: Regulation of UCP2 has been examined for factors that would regulate UCP1. In 11-week-old fed male Swiss mice, UCP2 mRNA was detected in BAT, WAT, thigh muscle and liver. […] Thus, UCP2 is regulated very differently than UCP1, which is induced by cold and β3 agonists.

[2] = system: mitochondria isolated from yeast; test: Respiratory rates in mitochondria isolated from yeast; assay type: biochemical
Text: Respiratory rates have been measured in mitochondria isolated from yeast containing the empty pYeDP vector and the pUCP2 vector (Table 1). […] Addition of ADP stimulates respiration more in control mitochondria, again showing the UCP2 mitochondria are more uncoupled.

[3] = system: UCP2 expression in Rat Basophilic Leukemia cell (RBL); test: Northern blot of UCP2 expression in RBL cells; assay type: cell-based; set-up: dose or concentration left out as unconfirmed
Text: (A) A tumor mast cell line, the Rat Basophilic Leukemia cell (RBL), is a model system for studies of immune system signal transduction. In the RBL cell, binding of an antigen to the IgE receptor on the cell surface results in the activation of phospholipase C-gamma (PLCg). This event leads to the activation of protein kinase C (PKC) and an increase in intracellular calcium which are required for degranulation and gene expression in RBL cells. Several drugs can mimic the intracellular events and degranulation occuring in this cell type in response to antigen activation of the IgE receptor. The inophore Ionomycin causes the release of calcium from intracellular calcium stores and the phorbol ester PMA is able to directly activate PKC. Both of these drugs are required to achieve maximal activation of RBL cells. In order to determine the expression level of UCP2 in RBL cells, these cells were treated with Ionomycin ([…]), PMA ([…]) or both drugs.

[4] = system: UCP2 mRNA in macrophage RAW cells; test: UCP2 mRNA in cultured macrophage RAW cells, northern normalized for actin; assay type: cell-based, mouse; conditions: macrophages treated with LPS
Text: (B) Bacterial lipopolysaccharide (LPS) regulates UCP2 mRNA in macrophages. Bacterial LPS is known to induce many of the features of infection, including fever. Thioglycolate elicited mouse macrophage (peritoneal exudate cells, PEC) have been studied for regulation of UCP2 mRNA by LPS. […] A study has also be made of UCP2 expression in cultured mouse macrophage RAW cells. These cells express UCP2. […] The LPS mediated decrease of UCP2 is not affected by indomethacin or by PGE2. All fo the macrophage northerns are normalized for actin expression and have been repeated at least once. […] The results are consistent with a role of UCP2 in immune function.

[5] = Roe et al, Metabolism 46:359 (1997); cited from earlier work
[6] = system: mitochondrial potential of transformed yeast; test: Flow cytometry of mitochondrial membrane potential with DiOC6(3) in transformed yeast; assay type: cell-based, Saccharomyces cerevisiae
Text: FIG. 2. Flow cytometry analysis of membrane potential following the expression of UCP2 in S. cerevisiae; comparison of wild-type UCP1 and non-active UCP1 mutants. The number of cells (counts, Y-axis) is represented on a logarithmic scale of 1024 channels. The X-axis is a logarithmic scale of fluorescence intensity. A shift of the curve towards the left indicates a decreased mitochondrial potential. The horizontal bar on the left indicates the position of cells treated with mCICCP, a chemical uncoupler. The expression of UCP2, UCP1 or UCPmut mRNA in recombinant yeast, as well as its absence in wild type yeast, was checked by Northern blots.
(§1) Yeast transfections and functional analysis using flow cytometry. The diploid yeast (Saccharomyces cerevisiae) strain W303 (a/α; ade2-10; his 3-11-15; leu2-2, 112; ura3-1; can1-100; try-Δ1) was used for expression of UCP2. The pYedP-UCP2 or UCPmut expression vectors were introduced into yeast by electroporation and transformants were selected for uracil […] as described by Bouillaud et al (EMBO J. 13:1990 (1994)). Expression of the UCP2, UCP1 or UCPmut under the control of the gal-cyc promoter was induced by galactose in the absence of glucose. Growth of yeast for flow cytometry analysis and measurement of mitochondrial membrane potential using the DiOC6(3) fluorescent probe (3,3′-dihexyloxacarbocyanine iodine, Molecular Probes, Eugene, Oreg.) are described by Bouillaud et al (EMBO J. 13:1990 (1994)).
The in vivo decrease of membrane potential associated with uncoupling of respiration was analyzed by flow cytometry of yeast labeled with the potential sensitive probe DiOC6(3) . […] In the case of UCP2, 2 peaks were observed, one equivalent to cells expressing UCP1 and a second peak corresponding to a very low mitochondrial potential. Mean fluorescence intensities were: empty vector, 65.5; UCPmut, 43.0; UCP1, 22.5; UCP2, 15.5 and UCP2+mCICCP, 0.4 (FIG. 2). Very similar results were obtained in two additional experiments.

[7] = system: yeast (Saccharomyces cerevisiae) strain W303; test: Growth rate (instantaneous generation time) of transformed yeast after galactose induction; assay type: cell-based; conditions: liquid medium, galactose-induced expression; ±SD
Text: as §1
To test the hypothesis that UCP2 is an uncoupling protein, yeast were transfected with UCP2 in an expression vector as previously reported for UCP1 (Bouillaud et al, EMBO J. 13:1990 (1994)). Rates of growth in liquid medium of transformed yeast were measured in the presence of galactose, which induces expression. Instantaneous generation times were compared after induction of vector, UCP2, control (empty) and UCP1 expression vectors. […]

[8] = yeast carrying the expression vector, lower = decreased mitochondrial potential

C[C@H](Cc1ccc2c(c1)OC(C(=O)[O-])(C(=O)[O-])O2)NC[C@H](O)c1cccc(Cl)c1.[Na+].[Na+] [CL316,243]
Effect on UCP2 mRNA levels ([1]; 11-week-old fed male Swiss mice, BAT, WAT, thigh muscle and liver, treatment for 10 days): did not influence UCP2 mRNA levels

N#CC(C#N)=NNc1ccc(OC(F)(F)F)cc1 [FCCP]
Respiratory rate increase factor upon addition of uncoupler ([2]; control (pYeDP) mitochondria): 7.1
Respiratory rate increase factor upon addition of uncoupler ([2]; pUCP2 mitochondria): 4.3

C[C@H](CCC(=O)O)C[C@H](C)C[C@H](C)C(=O)/C=C(\O)[C@H](C)C[C@H](C)C/C=C/[C@@H](C)[C@@H](O)[C@@H](C)[C@@H](O)C[C@@H]1CC[C@@](C)([C@H]2CC[C@@](C)([C@@H](C)O)O2)O1 [Ionomycin]
Induction of UCP2 expression versus untreated control cells [3]: ~4 fold

CCCCC[C@H](O)/C=C/[C@H]1[C@H](O)CC(=O)[C@@H]1C/C=C\CCCC(=O)O [PGE2]
Effect on the LPS mediated decrease of UCP2 [4]: not affected

CCCCCCCCCCCCCC(=O)O[C@@H]1[C@@H](C)[C@@]2(O)[C@@H](C=C(CO)C[C@]3(O)C(=O)C(C)=C[C@@H]23)[C@@H]2C(C)(C)[C@]12OC(C)=O [PMA]
Induction of UCP2 expression versus untreated control cells [3]: ~4 fold

COc1ccc2c(c1)c(CC(=O)O)c(C)n2C(=O)c1ccc(Cl)cc1 [indomethacin]
Effect on increased O2 consumption associated with cachexia of malignancy [5]: attenuated
Effect on the LPS mediated decrease of UCP2 [4]: not affected

N#CC(C#N)=NNc1cccc(Cl)c1 [mCICCP]
Mean fluorescence intensity (DiOC6(3)) ([6]; UCP2-expressing yeast treated with mCICCP): 0.4

leptin: leptin, shown to increase sympathetic outflow to brown fat
Effect on UCP2 expression ([1]; 2 μg, 2×/day for 4 days): failed to increased UCP2 expression
Influence on UCP2 expression ([1]; general statement: in vitro or in vivo): not to influence UCP2 expression

B1: UCP1: uncoupling protein-1 of brown adipose tissue, expressed in yeast for comparison (protein, UniProt P25874 1-307, looked up)
Mitochondrial brown fat …: MGGLTASDVHPTLGVQLFSAGIAACLADVITFPLDTAKVRLQVQGECPTSSVIRYKGVLGTITAVVKTEGRMKLYSGLPAGLQRQISSASLRIGLYDTVQEFLTAGKETAPSLGSKILAGLTTGGVAVFIGQPTEVVKVRLQAQSHLHGIKPRYTGTYNAYRIIATTEGLTGLWKGTTPNLMRSVIINCTELVTYDLMKEAFVKNNILADDVPCHLVSALIAGFCATAMSSPVDVVKTRFINSPPGQYKSVPNCAMKVFTNEGPTAFFKGLVPSFLRLGSWNVIMFVCFEQLKRELSKSRQTMDCAT
Instantaneous generation time [7]: 226 ± 10 min
Mean fluorescence intensity (DiOC6(3)) [6, 8]: 22.5

B2: UCP2: uncoupling protein-2, expressed in yeast from the pYedP-UCP2 expression vector (protein, UniProt P55851 1-309, looked up)
Dicarboxylate carrier SLC25A8: MVGFKATDVPPTATVKFLGAGTAACIADLITFPLDTAKVRLQIQGESQGPVRATASAQYRGVMGTILTMVRTEGPRSLYNGLVAGLQRQMSFASVRIGLYDSVKQFYTKGSEHASIGSRLLAGSTTGALAVAVAQPTDVVKVRFQAQARAGGGRRYQSTVNAYKTIAREEGFRGLWKGTSPNVARNAIVNCAELVTYDLIKDALLKANLMTDDLPCHFTSAFGAGFCTTVIASPVDVVKTRYMNSALGQYSSAGHCALTMLQKEGPRAFYKGFMPSFLRLGSWNVVMFVTYEQLKRALMAACTSREAPF
Instantaneous generation time [7]: 260 ± 29 min
Mean fluorescence intensity (DiOC6(3)) [6, 8]: 15.5
